Measured values published in patent US4005096A, “Therapeutically active phenoxyalkylamines” (Biersdorf Aktiengesellschaft, priority 1973, dated 1977).
Counter-ions that a name gives are not always drawn. Like-named read-outs stand apart in the source and are kept apart here.

Legend:
[1] = system: rats having artificially promoted high blood pressure (according to Goldblatt); test: blood pressure reduction in rats having artificially promoted high blood pressure (according to Goldblatt), plethysmographic at base of tail; assay type: in vivo; conditions: Rattus norvegicus, single dose; for change in vivo at 20 mg/kg: 20 mg/kg p.o.
Method: To show the blood pressure reducing properties of typical compounds according to the invention, products of the Examples were administered, to rats having artificially promoted high blood pressure (according to Goldblatt), in the form of solution either by injection under the skin of the back (subcutaneously) or by means of a stomach tube (perorally). 1,2.5 and 4 hours (and 1.75 hours in the case of Compound A) after administration of the substance the systolic and diastolic blood pressures were measured plethysmographically at the base of the tail of the rat. In the following Table I there is given for each of the individual compounds (designated A to M) the average value of the blood pressure in mm Hg before the administration of the compound, the time (determined from the measuring time) of maximum blood pressure reduction and the maximum reduction of the systolic and diastolic blood pressures expressed as a percentage of the initial value after a single administration of the dose.

[2] = acute toxicity (LD50 Mouse), Litchfield and Wilcoxon; conditions: in vivo
Source text: Tests to determine the toxicity have been carried out. In each case 6 mice were given a particular dose of the compound to be tested combined with a suitable neutral diluent, administration being carried out perorally, intraveneously and/or intraperitoneally.
The statistical evaluation took place according to the method of J. F. Litchfield, Jr. and F. Wilcoxon in: "Journal of Pharmacology and Experimental Therapeutics", Volume 96 (1949), pages 99-113.
In the following Table II the toxicity of Compounds A to M are given.

[3] = sc, 10 mg/kg s.c., at the time given in the same line, read-out: Maximum blood pressure reduction, diastolic (percent of initial value)
[4] = sc, 10 mg/kg s.c., at the time given in the same line, read-out: Maximum blood pressure reduction, systolic (percent of initial value)

| Structure (SMILES) | change in vivo at 10 mg/kg [1, 3] | change in vivo at 10 mg/kg [1, 4] | LD50 ([2]; ip) | LD50 ([2]; po) | LD50 ([2]; iv) | change in vivo at 20 mg/kg ([1]; po, read-out: Maximum blood pressure reduction, diastolic (percent of initial value)) | change in vivo at 20 mg/kg ([1]; po, read-out: Maximum blood pressure reduction, systolic (percent of initial value)) | change in vivo at 10 mg/kg ([1]; po, 10 mg/kg p.o., read-out: Maximum blood pressure reduction, diastolic (percent of initial value)) | change in vivo at 10 mg/kg ([1]; po, 10 mg/kg p.o., read-out: Maximum blood pressure reduction, systolic (percent of initial value)) |
| --- | --- | --- | --- | --- | --- | --- | --- | --- | --- |
| Clc1ccccc1OCCCCNCCc1ccncc1 [Compound K, N-[4-Pyridyl-ethyl(2)]-o-chloro-phenoxybutylamine dioxalate monohydrate] | -19% | -15% | 182 mg/kg | 235 mg/kg | – | – | – | – | – |
| COc1ccccc1OCCNCc1cccnc1 [Compound C, N-(3-Pyridyl-methyl)-o-methoxy-phenoxyethylamine .2 HCl] | -16% | -15% | 150 mg/kg | 390 mg/kg | 73.3 mg/kg | – | – | – | – |
| N#Cc1ccccc1OCCNCCc1ccncc1 [Compound L, N-[4-Pyridyl-ethyl(2)]-o-cyano-phenoxyethylamine dioxalate hydrate] | -19% | -17% | 91 mg/kg | 245 mg/kg | – | – | – | – | – |
| Clc1ccccc1OCCNCCc1ccncc1 [Compound G, N-[4-Pyridyl-ethyl(2)]-o-chloro-phenoxyethylamine dioxalate dihydrate] | – | – | ~200 mg/kg | – | 71.7 mg/kg | – | – | – | – |
| COc1ccccc1OCCNCCc1ccncc1 [Compound A, N-[4-Pyridyl-ethyl(2)]-o-methoxy-phenoxyethylamine.2 HCl] | -34% | -25% | 150 mg/kg | 290 mg/kg | 53.5 mg/kg | -32% | -28% | – | – |
| Clc1ccccc1OCCCNCCc1ccncc1 [Compound F, N-[4-Pyridyl-ethyl(2)]-o-chloro-phenoxypropylamine dioxalate dihydrate] | – | – | > 800 mg/kg | – | – | – | – | – | – |
| COc1ccccc1OCCNCc1ncccc1O.Cl.Cl [Compound M, N-[(3-Hydroxy-2-pyridyl)-methyl]-o-methoxy-phenoxyethylamine dihydrochloride] | -12% | -11% | – | – | 55.6 mg/kg | – | – | – | – |
| COc1ccccc1OCCNCCc1ccccn1 [Compound B, N-[2-Pyridyl-ethyl(2)]-o-methoxy-phenoxyethylamine . 2 HCl] | -23% | -20% | 150 mg/kg | – | 31.5 mg/kg | – | – | – | – |
| COc1ccccc1OCCNCc1ccccn1 [Compound D, N-(2-Pyridyl-methyl)-o-methoxy-phenoxyethylamine. 2 HCl] | -25% | -22% | 150 mg/kg | 750 mg/kg | 51 mg/kg | – | – | – | – |
| Cc1cccnc1CNCCOc1ccccc1Cl [Compound H, N-[(3-Methyl-2-pyridyl)-methyl]-o-chloro-phenoxyethylamineoxalate hydrate] | -16% | -16% | 220 mg/kg | – | 50 mg/kg | – | – | – | – |
| COc1ccccc1OCCNCc1ccncc1 [Compound E, N-(4-Pyridyl-methyl)-o-methoxy-phenoxyethylamine . 2 HCl] | -18% | -15% | 364 mg/kg | 730 mg/kg | 90.1 mg/kg | – | – | -22% | -20% |
| Cc1cccnc1CNCCOc1ccccc1C#N [Compound J, N-[(3-Methyl-2-pyridyl)-methyl]-o-cyano-phenoxyethylamineoxalate hydrate] | -12% | -11% | – | 660 mg/kg | 73.3 mg/kg | – | – | – | – |
